# Test results taken from patent publication US12171229B2, “Heteroaryl-triazole and heteroaryl-tetrazole compounds as pesticides” (BAYER AKTIENGESELLSCHAFT, priority 2018, dated 2024).
# How the values were obtained:
# Format in all cases: in vivo
# Ctenocephalides felis = Ctenocephalides felis oral test; conditions: 48 h, 100 ppm in cattle blood, after 2 days, adult unfed cat fleas
# Description: Ctenocephalides Felis—Oral Test
# Solvent: dimethyl sulfoxide
# To produce a suitable preparation of active compound, 10 mg of active compound are dissolved in 0.5 ml solvent, and the concentrate is diluted with cattle blood to the desired concentration.
# Approximately 20 adult unfed cat fleas (Ctenocephalides felis) are placed in flea chambers. The blood chamber, sealed with parafilm on the bottom, are filled with cattle blood supplied with compound solution and placed on the gauze covered top of the flea chamber, so that the fleas are able to suck the blood. The blood chamber is heated to 37° C. whereas the flea chamber is kept at room temperature.
# After 2 days mortality in % is determined. 100% means all the fleas have been killed; 0% means none of the fleas have been killed.
# Diabrotica balteata = Diabrotica balteata spray test; conditions: Diabrotica balteata, in Triticum aestivum, 168 h, after 7 days, larvae on wheat seeds, read-out: efficacy (seedlings grown up); for pest or weed control at 80 µg/disc, 250 g/ha: 80 μg/well (=250 g/ha); for pest or weed control at 160 µg/disc, 500 g/ha: 160 μg/well (=500 g/ha)
# Description: Diabrotica balteata—Spray Test [table] To produce a suitable preparation of active compound, 1 part by weight of active compound is mixed with the stated amount of solvent, and the concentrate is diluted with water, containing an emulsifier concentration of 1000 ppm, to the desired concentration. Further test concentrations are prepared by dilution with emulsifier containing water. Soaked wheat seeds (Triticum aestivum) are placed in a multiple well plate filled with agar and some water and are incubated for 1 day to germinate (5 seeds per well). The germinated wheat seeds are sprayed with a test solution containing the desired concentration of the active ingredient. Afterwards each unit is infected with 10-20 larvae of the banded cucumber beetle (Diabrotica balteata). After 7 days efficacy in % is determined. 100% means all the seedlings have grown up like in the untreated, uninfected control; 0% means none of the seedlings have grown.
# Nezara viridula = Nezara viridula spray test; conditions: 96 h, after 4 days, larvae on barley plants
# Description: Nezara viridula—Spray Test
# (§1) To produce a suitable preparation of active compound, 1 part by weight of active compound is mixed with the stated amount of solvent, and the concentrate is diluted with water, containing an emulsifier concentration of 1000 ppm, to the desired concentration. Further test concentrations are prepared by dilution with emulsifier containing water.
# Barley plants (Hordeum vulgare) infested with larvae of the southern green stink bug (Nezara viridula) are sprayed with a test solution containing the desired concentration of the active ingredient.
# After 4 days mortality in % is determined. 100% means all the stink bugs have been killed: 0% means none of the stink bugs have been killed.
# Spodoptera frugiperda = Spodoptera frugiperda spray test; conditions: 168 h, after 7 days, larvae on maize leaf sections
# Description: Spodoptera frugiperda—Spray Test
# as §1, with “solvents” for “solvent,”, “and” for “and the concentrate”
# Maize (Zea mays) leaf sections are sprayed with a preparation of the active ingredient of the desired concentration. Once dry, the leaf sections are infested with fall armyworm larvae (Spodoptera frugiperda).
# After 7 days mortality in % is determined. 100% means all caterpillars have been killed and 0% means none of the caterpillars have been killed.
# Boophilus microplus = Boophilus microplus injection test; conditions: Rhipicephalus microplus, 168 h; 20 μg/animal injected into the abdomen; adult engorged female ticks; egg deposition after 7 days; read-out: efficacy (infertile eggs)
# Description: Boophilus Microplus—Injection Test Solvent: dimethyl sulfoxide To produce a suitable preparation of active compound, 10 mg of active compound are dissolved in 0.5 ml solvent, and the concentrate is diluted with solvent to the desired concentration. Five adult engorged female ticks (Boophilus microplus) are injected with 1 μl compound solution into the abdomen. The ticks are transferred into replica plates and incubated in a climate chamber. After 7 days egg deposition of fertile eggs is monitored. Eggs where fertility is not visible are stored in a climate chamber till hatching after about 42 days. An efficacy of 100% means all eggs are infertile; 0% means all eggs are fertile.
Structure (SMILES),mortality at 100 ppm (Ctenocephalides felis) [%],"pest or weed control at 80 µg/disc, 250 g/ha (Diabrotica balteata) [%]","pest or weed control at 160 µg/disc, 500 g/ha (Diabrotica balteata) [%]",mortality at 500 g/ha (Nezara viridula) [%],mortality at 500 g/ha (Spodoptera frugiperda) [%],mortality at 100 g/ha (Spodoptera frugiperda) [%],mortality at 100 g/ha (Nezara viridula; 100 g/ha) [%],pest or weed control at 0.02 mg (Boophilus microplus) [%]
COc1cc(C(=O)N[C@@H](C)c2ncnn2-c2nccs2)cc(C(F)(F)F)c1 [Example I-093],100,100,100,100,100,–,–,–
CC(NC(=O)c1cc(Cl)cc(C(F)(F)F)c1)c1ncnn1C1=NCCS1 (stereo not shown) [Example I-075],100,100,100,–,–,–,–,–
C[C@H](NC(=O)c1cc(Cl)cc(C(F)(F)F)c1)c1ncnn1-c1ccc(NC(=S)CC2CC2)cn1 [Example I-097],100,100,100,–,100,–,–,–
CC(c1ncnn1-c1cnc2ccccc2n1)N(CC1CC1)C(=O)c1cc(Cl)cc(C(F)(F)F)c1 (stereo not shown) [Example I-004],–,–,100,–,–,–,–,–
C[C@H](NC(=O)c1cc(Cl)cc(C(F)(F)F)c1)c1ncnn1-c1ncc(Cl)s1 [Example I-090],100,100,100,100,100,100,–,–
C[C@H](NC(=O)c1cc(Cl)cc(C(F)(F)F)c1)c1ncnn1-c1ccc(OCC(F)(F)C(F)(F)F)cn1 [Example I-060],100,80,–,–,100,100,–,–
C[C@H](NC(=O)c1cc(Cl)cc(C(F)(F)F)c1)c1ncnn1-c1nc(C(F)(F)F)cs1 [Example I-084],–,100,100,–,–,–,–,–
C[C@H](NC(=O)c1cc(Cl)cc(C(F)(F)F)c1)c1ncnn1-c1ccc(-n2ccnc2)cn1 [Example I-086],100,100,–,–,83,–,–,–
C[C@H](NC(=O)c1cc(Cl)cc(C(F)(F)F)c1)c1ncnn1-c1ccc(-n2cncn2)cn1 [Example I-087],–,–,–,–,100,100,–,–
C[C@H](NC(=O)c1cc(Cl)cc(C(F)(F)F)c1)c1ncnn1-c1nnc(-c2ccc(F)cc2)s1 [Example I-023],–,–,–,–,–,–,100,–
C[C@H](NC(=O)c1cc(Cl)cc(C(F)(F)F)c1)c1ncnn1-c1nc(C(F)F)c(Cl)s1 [Example I-022],–,100,100,–,83,–,–,100
C[C@H](NC(=O)c1cc(Cl)cc(C(F)(F)F)c1)c1ncnn1-c1ccc(OC(F)F)cn1 [Example I-029],–,100,100,100,100,100,–,–
C[C@H](NC(=O)c1cc(Cl)cc(C(F)(F)F)c1)c1ncnn1-c1cn(C)nc1C(F)F [Example I-032],100,100,100,–,–,–,–,100
CC[C@H](NC(=O)c1cc(Cl)cc(OC(F)(F)F)c1)c1ncnn1-c1ccc(NC(=O)C2CC2)cn1 [Example I-096],100,100,100,–,–,–,–,–
CC(C)C(=S)Nc1ccc(-n2ncnc2[C@H](C)NC(=O)c2cc(Cl)cc(C(F)(F)F)c2)nc1 [Example I-099],100,100,100,–,100,–,–,–
C[C@H](NC(=O)c1cc(Cl)cc(C(F)(F)F)c1)c1ncnn1-c1nnc(C(F)(F)F)s1 [Example I-017],–,–,–,–,–,–,–,90
